Experimental data from publication PMC9820303, “^αN-Acetyl β-Endorphin Is an Endogenous Ligand of σ1Rs That Regulates Mu-Opioid Receptor Signaling by Exchanging G Proteins for σ2Rs in σ1R Oligomers” (International Journal of Molecular Sciences, 2022).

Legend:
σ1R-σ2R = σ1R-σ2R (Mus musculus, UniProt O55242); experiment: σ1R/σ2R coprecipitation from CHO cells cotransfected with cMyc-σ1R and HA-σ2R; type: cell-based, Chinese hamster ovary (CHO) cells; set-up: Full-length sigma receptors were subcloned in frame; expressed in transfected cells; host or cells: CHO cells; conditions: peptides 1 nM, PRE084, S1RA and BD1047 100 nM; 30 min in serum-free medium
Experimental: Effect of β-End 1–31 and ^αN-acetyl derivative. (A) Single-wavelength and merged images of CHO cells cotransfected with cMyc-σ1R and HA-σ2R. The cells were fixed 48 h after transfection and analyzed by confocal laser scanning microscopy. Transient expression of proteins within the transfected cells was detected with anti-cMyc (green) and anti-HA (red) antibodies (original magnification 10×). […] Scale bar: 30 µm. (B) Nuclei stained with DAPI (blue). (C–F) Single-wavelength and merged images are enlargements of individual cells. Scale bar: 5 µm. Lower panels: (G) Immunoprecipitation (IP) of tagged sigma receptor types from cotransfected CHO cells. […] Representative blots are shown.
CHO cells were cultured in modified Eagle’s medium/nutrient mixture F-12 (DMEM/F12) supplemented with GlutaMax (#31331028, ThermoFisher, Spain), 10% foetal bovine serum (#10500064, ThermoFisher), 100 IU/mL penicillin and 100 μg/mL streptomycin (#15140148, ThermoFisher) at 37 °C in a humidified 5% CO2 incubator as described previously. Full-length sigma receptors were subcloned in frame into the pSF-CMV-Puro-NH2-CMyc N-terminal tag (σ1R, #OGS3214, Merck-Sigma) and pSF-CMV-Puro-NH2-HA N-terminal tag (σ2R, #OGS1500, Merck-Sigma) mammalian plasmids using standard cloning strategies. CHO cells were seeded on 12-well plates at a concentration of 0.35 × 10^6 cells per well, grown in Opti-MEM™ I Reduced Serum Medium (#31985070, ThermoFisher) to 70–80% confluence, transfected using Lipofectamine 2000 (#11668030, Invitrogen) and incubated for 24 h prior to testing for transgene expression. For all experiments, the culture medium was replaced with serum-free medium before the addition of sigma ligands and incubated for 30 min. Cells were then harvested and cellular extracts were prepared for immunoprecipitation analysis. Receptors were detected by Western blot analysis using an antibody that recognizes either tag: Myc-tag (#MA1 21316 BTIN, Invitrogen), HA-tag (#26183-BTIN, Invitrogen).

σ1R-NR1 C1 = target: T1, σ1R-NR1 C1 (Mus musculus, UniProt O55242); experiment: In vitro σ1R-NR1 C1 association of recombinant proteins (Western blot); type: biochemical, murine; conditions: increasing concentrations; 30 min RT; vs control without ligand
T1 construct: The coding region of the full-length murine σ1R (AF004927); GST (N, cleaved yes); made in house; host or cells: E. coli BL21 (KRX)
Experimental: Figure 7 Effect of β-End 1–31, ^αN-acetyl β-End 1–31 and their N-terminal derivatives on σ1R-σ2R, σ1R-NR1 C1 and σ1R-BiP associations. Amino acid sequence of β-End 1–31 showing derivatives 1–26 and 1–27. (A) HaloLink-attached σ2Rs were incubated for 30 min at RT in the presence of σ1Rs (100 nM) in 300 μL of 50 mM Tris-HCl (pH 7.4), 0.2% CHAPS, and 2.5 mM CaCl2. After removing the unbound σ1R proteins, the effects of increasing the peptide concentrations on σ1R-σ2R associations were studied. At the end of the incubation, protein complexes bound to HaloLink-σ2R were obtained by centrifugation, washed three times, solubilized in 2× Laemmli buffer containing β-mercaptoethanol, resolved by SDS-PAGE, and analyzed by Western blotting (for more details, see Section 4). This protocol was also used to assess the effect of ligands on (B) σ1R-NR1 C1 and (C) σ1R-BiP associations. Data were compared to that of the control, which was obtained in the absence of ligands. (A–C) Data are the mean ± SD, n = 3. (D) The β-End 1–31 structural models were predicted by Novafold (DNASTAR Lasergene protein v.17, Inc., Madison, WI, USA). Ribbon model: The 3D structure, charge distribution and hydrophobicity map of β-End 1–31 are shown. Positive charges are shown in red and negative charges in blue. Polar surfaces are shown in yellow, and nonpolar surfaces are shown in orange. Linear model: the opioid (1–5) and flexible region (8–11) sequences are shown in green and orange, respectively, and the amphiphilic helix (15–25) is shown in pink.
The recombinant σ1R (100 nM) was incubated either with Haloprotein (negative control) or together with the immobilized σ2R, NR1 C0-C1-C2 or BiP proteins in 300 µL of a buffer containing 50 mM Tris-HCl (pH 7.4) and 0.2% CHAPS in the presence of 2.5 mM CaCl2 for 30 min at RT. After removal of the unbound σ1R, the agarose-attached complexes were incubated for 30 min with rotation at RT in the presence of increasing concentrations of the ligands in a final reaction volume of 300 µL [50 mM Tris-HCl (pH 7.4), 2.5 mM CaCl2 and 0.2% CHAPS]. Ligands were usually dissolved in aqueous solutions; however, when an organic solvent such as DMSO was required to incorporate, e.g., pregnenolone sulfate, the solvent remained below 1% in the assay buffer. Agarose pellets containing the bound proteins were obtained by centrifugation, washed and resuspended thrice in the presence of 2.5 mM CaCl2, solubilized in 2× Laemmli buffer plus β-mercaptoethanol, and analyzed by Western blotting.
Because all the assays were performed with recombinant proteins, the immune signals provided a single band of the expected size, which was used for the subsequent densitometry analysis. Accordingly, no other regions of the blots provided information and were routinely excluded from the analysis.
Figure S8. Effect of the physiological and nonphysiological sequences of β-End 1-31 and classical σ1R ligands on BiP-σ1R, σ2R-σ1R and NR1 C1-σ1R associations . […]
D) Agarose-NR1 C1 loaded with […]
σ1Rs were incubated in the absence (control) and with nonphysiological derivatives of β-End 1-31. A-D) The σ1Rs that remained attached to the agarose complexes were evaluated by Western blotting. The […]
(1 picture or pasted object on this page, not shown here)
Figure S9. Effect of σ1R agonist/antagonist ligands on σ1R-NR1 C1 associations. Θ-Agarose-NR1 C1 was loaded with recombinant σ1Rs. After unbound σ1R proteins were removed, the complexes were incubated with (A) 1 nM β-End 1-31, (B) αN-acetyl β-End 1-31, (C-D) β-End 28-31 in the absence (black columns) and presence of (A) 10 nM or (B-D) increasing concentrations of competing σ1R ligands as indicated. The σ1Rs that remained attached to the Θ-σ2Rs were evaluated by Western blotting. The […]
Prog is progesterone; PregSulfate is pregnenolone sulfate; Nac is […]

σ1R-σ2R, sequence (O55242 whole entry): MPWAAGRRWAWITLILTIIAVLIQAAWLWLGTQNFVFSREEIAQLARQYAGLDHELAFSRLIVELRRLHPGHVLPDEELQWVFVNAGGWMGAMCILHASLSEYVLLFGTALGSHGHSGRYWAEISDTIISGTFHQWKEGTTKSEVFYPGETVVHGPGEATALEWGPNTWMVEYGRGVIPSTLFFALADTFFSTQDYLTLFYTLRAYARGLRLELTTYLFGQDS
T1 sequence (O55242 whole entry): as above

| Compound | effect on σ1R-σ2R association in CHO cells (σ1R-σ2R) | effect on σ1R-NR1 C1 association (σ1R-NR1 C1) |
| --- | --- | --- |
| Br.Br.CN(C)CCN(C)CCc1ccc(Cl)c(Cl)c1 [BD1047, N′-[2-(3,4-dichlorophenyl)ethyl]-N,N,N′-trimethylethane-1,2-diamine;dihydrobromide, reference compound] | preserved these protein complexes | did the opposite |
| COC(=O)[C@]1(c2ccc(C)cc2)C[C@@H]1CN1CCC(O)(c2ccccc2)CC1 [PPCC, (1R,2S/1S,2R)-2-[4-hydroxy-4-phenylpiperidin-1-yl)methyl]-1-(4-methylphenyl) cyclopropanecarboxylate, reference compound] | – | increased σ1R-NR1 C1 complexes |
| Cl.O=C(OCCN1CCOCC1)C1(c2ccccc2)CCCCC1 [PRE084, 2-(4-morpholinethyl)-1-phenylcyclohexanecarboxylate hydrochloride, reference compound] | strongly decreased the σ1R-σ2R association | increased σ1R-NR1 C1 complexes |
| Cc1cc(OCCN2CCOCC2)nn1-c1ccc2ccccc2c1 [S1RA] | preserved these protein complexes | did the opposite |
| KKGE [β-End 28–31, C-terminal tetrapeptide of β-End 1–31] | – | reduced σ1R-NR1 C1 interactions |
| YKKGE [β-End 27–31, C-terminal pentapeptide of β-End 1–31] | – | increased σ1R-NR1 C1 |
| ^αN-acetyl β-End 1–31: β-End 1–31 acetylated at N terminal Y1, α position | preserved these protein complexes | separated σ1Rs from NR1 C1 subunits at pM concentrations |
| β-End 1–26: β-End 1–31 derivative without 5 C-terminal residues (YGGFMTSEKSQTPLVTLFKNAIIKNA; Beta-endorphin; UniProt P01189 237-262, looked up, fragment) | – | promoted σ1R-NR1 C1 associations at pM concentrations |
| β-End 1–27: β-End 1–31 derivative without 4 C-terminal residues (YGGFMTSEKSQTPLVTLFKNAIIKNAY; Beta-endorphin; UniProt P01189 237-263, looked up, fragment) | – | weak or no effects |
| β-End 6–31: β-End 1–31 lacking the N-terminal met-enkephalin 1–5 sequence (TSEKSQTPLVTLFKNAIIKNAYKKGE; Beta-endorphin; UniProt P01189 242-267, looked up, fragment) | – | began to separate the complex |
| β-End 22–31: nonphysiological C-terminal sequence of β-End 1–31 (IIKNAYKKGE; Beta-endorphin; UniProt P01189 258-267, looked up, fragment) | – | persisted |
